# Data as given in ChEMBL document CHEMBL1201862, “PubChem BioAssay data set” (2004).
#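 A five-concentration, 48-hour dose response in 96-well plates underlies each endpoint, interpolated linearly between surrounding concentrations. Here, GI50 denotes the concentration required for 50% inhibition of growth.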 The source made the active and inactive calls. No stated cut-off is given here; in the data, active = GI50 up to about 1.1 µM and inactive = higher.
# What was measured:
# Experiment in all cases: growth of human tumour cells (NCI), 48 h
# HCT-15 = tested on: HCT-15
# IGROV-1 = tested on: IGROV-1
# K562 = tested on: K562
# MOLT-4 = tested on: MOLT-4
# NCI-H522 = tested on: NCI-H522
# RPMI-8226 = tested on: RPMI-8226
# SF-539 = tested on: SF-539
# SNB-19 = tested on: SNB-19
# SW-620 = tested on: SW-620
# TK-10 = tested on: TK-10
# U-251 = tested on: U-251
# UACC-257 = tested on: UACC-257
# UACC-62 = tested on: UACC-62
# UO-31 = tested on: UO-31
Compound,GI50 (HCT-15),GI50 (IGROV-1),GI50 (K562),GI50 (MOLT-4),GI50 (NCI-H522),GI50 (RPMI-8226),GI50 (SF-539),GI50 (SNB-19),GI50 (SW-620),GI50 (TK-10),GI50 (U-251),GI50 (UACC-257),GI50 (UACC-62),GI50 (UO-31)
CC(C)C1CC[C@@H](C)C[C@@]1(O)CC(N)=O (stereo partly specified),> 100 µM,> 100 µM (inactive),> 100 µM (inactive),> 100 µM (inactive),> 100 µM (inactive),> 100 µM (inactive),> 100 µM (inactive),> 100 µM (inactive),> 100 µM (inactive),> 100 µM (inactive),> 100 µM (inactive),> 100 µM (inactive),> 100 µM (inactive),> 100 µM (inactive)
O=C(CC(=O)N1N=C(n2ccc3ccccc32)CC1c1ccccc1)Nc1ccccc1Cl (stereo unspecified),> 100 µM,> 100 µM (inactive),> 100 µM (inactive),> 100 µM (inactive),> 100 µM (inactive),> 100 µM (inactive),> 100 µM (inactive),> 100 µM (inactive),> 100 µM (inactive),> 100 µM (inactive),> 100 µM (inactive),> 100 µM (inactive),> 100 µM (inactive),> 100 µM (inactive)
CC1=C(C(=O)Nc2ccccc2)C(c2cccc3ccccc23)C(C(=O)Nc2ccccc2)=C(C)N1,16.2 µM,25.6 µM (inactive),30.4 µM (inactive),0.767 µM (active),16 µM (inactive),–,20.4 µM (inactive),16.4 µM (inactive),22.4 µM (inactive),31.5 µM (inactive),16.5 µM (inactive),18.2 µM (inactive),13.8 µM (inactive),21.6 µM (inactive)
CC(C)N1CN(C(C(=O)N[C@@H]2C(=O)N3C2SC(C)(C)C3C(=O)O)c2ccc(O)cc2)CSC1=S (stereo partly specified),43 µM,> 100 µM (inactive),31.8 µM (inactive),> 100 µM (inactive),41 µM (inactive),94.2 µM (inactive),> 100 µM (inactive),> 100 µM (inactive),16.9 µM (inactive),> 100 µM (inactive),> 100 µM (inactive),> 100 µM (inactive),> 100 µM (inactive),> 100 µM (inactive)
O=S1(=O)OCCOS(=O)(=O)C1(Br)Cc1ccccc1,> 100 µM,> 100 µM (inactive),> 100 µM (inactive),> 100 µM (inactive),> 100 µM (inactive),> 100 µM (inactive),> 100 µM (inactive),> 100 µM (inactive),> 100 µM (inactive),> 100 µM (inactive),> 100 µM (inactive),> 100 µM (inactive),> 100 µM (inactive),> 100 µM (inactive)
N=C1CSC2=NC3=C(CCC/C3=C\c3ccccc3)C(c3ccccc3)N12 (stereo unspecified),–,5.6 µM (inactive),3.21 µM (inactive),2.49 µM (inactive),2.61 µM (inactive),2.16 µM (inactive),6 µM (inactive),5.94 µM (inactive),3.92 µM (inactive),5.28 µM (inactive),3.42 µM (inactive),11.5 µM (inactive),9.23 µM (inactive),11.2 µM (inactive)
COc1ccc(OC)c(/C(C)=N/NC(N)=S)c1,> 100 µM,> 100 µM (inactive),> 100 µM (inactive),74.8 µM (inactive),–,> 100 µM (inactive),> 100 µM (inactive),–,> 100 µM (inactive),> 100 µM (inactive),> 100 µM (inactive),> 100 µM (inactive),> 100 µM (inactive),> 100 µM (inactive)
CC1=NC2(C(=O)O)C3(C(=O)O)N=C(C)OC3(C(F)(F)F)C2(C(F)(F)F)O1 (stereo unspecified),> 10 µM,> 100 µM (inactive),> 100 µM (inactive),> 100 µM (inactive),> 100 µM (inactive),–,> 100 µM (inactive),> 100 µM (inactive),> 100 µM (inactive),> 100 µM (inactive),> 100 µM (inactive),> 100 µM (inactive),> 100 µM (inactive),> 100 µM (inactive)
COc1cc(C(=O)C(CO)Oc2ccccc2OC)ccc1O (stereo unspecified),> 100 µM,> 100 µM (inactive),42.1 µM (inactive),> 100 µM (inactive),> 100 µM (inactive),–,> 100 µM (inactive),> 100 µM (inactive),> 100 µM (inactive),> 100 µM (inactive),> 100 µM (inactive),> 100 µM (inactive),> 100 µM (inactive),> 100 µM (inactive)
CC(C)(C)C(=C[S+]([O-])/N=C/c1ccccc1)C(C)(C)C (stereo unspecified),23 µM,25.8 µM (inactive),1.23 µM (inactive),14 µM (inactive),23 µM (inactive),20.8 µM (inactive),> 100 µM (inactive),44.7 µM (inactive),50 µM (inactive),> 100 µM (inactive),25.1 µM (inactive),52 µM (inactive),–,27.2 µM (inactive)
COC(=O)C1CC2c3c(c4ccccc4n3C)CC(C1=O)N2C (stereo unspecified),22.3 µM,52.8 µM (inactive),40.1 µM (inactive),29 µM (inactive),17.3 µM (inactive),–,32.5 µM (inactive),75.9 µM (inactive),34.8 µM (inactive),40.2 µM (inactive),49.8 µM (inactive),32.8 µM (inactive),49.5 µM (inactive),21.4 µM (inactive)
COc1ccc(-c2cc(=O)c3cc(O)ccc3o2)c(OC)c1OC,31.8 µM,42.8 µM (inactive),24.8 µM (inactive),–,18.2 µM (inactive),12.9 µM (inactive),68.5 µM (inactive),47.4 µM (inactive),40.8 µM (inactive),39.4 µM (inactive),–,32.2 µM (inactive),28.7 µM (inactive),–
C=C1C(=O)OC2C1CC[C@H](C)C13OC(=O)CC1[C@@]23C (stereo partly specified),–,> 100 µM (inactive),> 100 µM (inactive),> 100 µM (inactive),48.3 µM (inactive),> 100 µM (inactive),> 100 µM (inactive),> 100 µM (inactive),> 100 µM (inactive),> 100 µM (inactive),> 100 µM (inactive),> 100 µM (inactive),> 100 µM (inactive),> 100 µM (inactive)
CCC1C(C)c2c([nH]c3ccccc23)C2C(=O)N(c3ccccc3)C(=O)C21 (stereo unspecified),13.6 µM,3.67 µM (inactive),12.6 µM (inactive),9.31 µM (inactive),–,11.9 µM (inactive),18.7 µM (inactive),–,16.5 µM (inactive),31.3 µM (inactive),14.6 µM (inactive),–,9.42 µM (inactive),–
Cc1ccc(NC(=O)C(=O)CC(=O)c2ccccc2)cc1C,37.2 µM,69.8 µM (inactive),–,–,98.9 µM (inactive),> 100 µM (inactive),> 100 µM (inactive),> 100 µM (inactive),> 100 µM (inactive),> 100 µM (inactive),> 100 µM (inactive),> 100 µM (inactive),70.6 µM (inactive),> 100 µM (inactive)
CC1C2C=C(O)C(=O)C(C2=O)C1c1ccccc1 (stereo unspecified),> 100 µM,> 100 µM (inactive),> 100 µM (inactive),> 100 µM (inactive),> 100 µM (inactive),> 100 µM (inactive),> 100 µM (inactive),> 100 µM (inactive),> 100 µM (inactive),> 100 µM (inactive),> 100 µM (inactive),> 100 µM (inactive),> 100 µM (inactive),> 100 µM (inactive)
O=S(=O)(CC1=NC2C=CC=CC2N=C1)NCc1ccccc1 (stereo unspecified),81.7 µM,> 100 µM (inactive),> 100 µM (inactive),69.5 µM (inactive),76.2 µM (inactive),> 100 µM (inactive),> 100 µM (inactive),> 100 µM (inactive),> 100 µM (inactive),> 100 µM (inactive),> 100 µM (inactive),–,> 100 µM (inactive),–
CC(=O)C1(O)CC2(c3ccccc3)C(=O)C1(c1ccccc1)C(c1ccccc1)=C2c1ccccc1 (stereo unspecified),> 100 µM,> 100 µM (inactive),26.1 µM (inactive),39.6 µM (inactive),66.8 µM (inactive),16.5 µM (inactive),> 100 µM (inactive),> 100 µM (inactive),> 100 µM (inactive),> 100 µM (inactive),81.3 µM (inactive),35.6 µM (inactive),79.4 µM (inactive),58.5 µM (inactive)
CC(C)c1cc(C(C)C)c(S(=O)(=O)N=[N+]=[N-])c(C(C)C)c1,> 100 µM,> 100 µM (inactive),87.5 µM (inactive),21.3 µM (inactive),> 100 µM (inactive),18.7 µM (inactive),> 100 µM (inactive),> 100 µM (inactive),> 100 µM (inactive),> 100 µM (inactive),44 µM (inactive),> 100 µM (inactive),> 100 µM (inactive),> 100 µM (inactive)
CC1=CC(=O)N2C(OC[C@@H]2c2ccccc2)O1 (stereo partly specified),> 100 µM,> 100 µM (inactive),> 100 µM (inactive),> 100 µM (inactive),> 100 µM (inactive),> 100 µM (inactive),> 100 µM (inactive),> 100 µM (inactive),> 100 µM (inactive),> 100 µM (inactive),> 100 µM (inactive),> 100 µM (inactive),> 100 µM (inactive),> 100 µM (inactive)
CCOC(=O)c1c(-c2[nH]c(C(=O)OCc3ccccc3)c(C)c2C(=O)OCC)[nH]c(C(=O)OCc2ccccc2)c1C,> 100 µM,> 100 µM (inactive),–,> 100 µM (inactive),> 100 µM (inactive),> 100 µM (inactive),48.4 µM (inactive),–,> 100 µM (inactive),> 100 µM (inactive),36 µM (inactive),–,> 100 µM (inactive),> 100 µM (inactive)
